Measured values published in publication PMC11171218, “N-Benzylated 5-Hydroxybenzothiophene-2-carboxamides as Multi-Targeted Clk/Dyrk Inhibitors and Potential Anticancer Agents” (Cancers, 2024).

Assays:
Dyrk1A = Dyrk1A (Homo sapiens, UniProt Q13627); experiment: Z'-LYTE kinase inhibition assay, Dyrk1A; type: biochemical; conditions: for IC50: ATP conc. equivalent to Km; for inhibition at 1 µM: read-out: Dyrk1A % Inh. At 1 µM
Description: (§1) 3. Experimental procedure for protein kinases and inhibition assays.
(§2) 3.1 The Z ́ -LYTE biochemical assay for screening and IC 50 determination for Clk1, Dyrk1A, Dyrk1B, Clk2 and Clk3 kinases.
(§3) The assay employs a fluorescence-based, coupled-enzyme format and is based on the differential sensitivity of phosphorylated and non-phosphorylated peptides to proteolytic cleavage. The peptide substrate is labeled with two fluorophores-one at each end-that make up a FRET pair. In the primary reaction, the kinase transfers the gamma-phosphate of ATP to a single tyrosine, serine, or threonine residue in a synthetic FRET-peptide. In the secondary reaction, a site-specific protease recognizes and cleaves non-phosphorylated FRET-peptides. Phosphorylation of FRET-peptides suppresses cleavage by the Development Reagent. Cleavage disrupts FRET between the donor (i.e., coumarin) and acceptor (i.e., fluorescein) fluorophores on the FRET-peptide, whereas uncleaved, phosphorylated FRET-peptides maintain FRET. A ratiometric method, which calculates the ratio (the Emission Ratio) of donor emission to acceptor emission after excitation of the donor fluorophore at 400 nm, is used to quantitate reaction progress. Both cleaved and uncleaved FRET-peptides contribute to the fluorescence signals and therefore to the Emission Ratio. The extent of phosphorylation of the FRET-peptide can be calculated from the Emission Ratio. The Emission Ratio will remain low if the FRET-peptide is phosphorylated (i.e., no kinase inhibition) and will be high if the FRET-peptide is non-phosphorylated (i.e., kinase inhibition).
(§4) The IC 50 values were determined for compounds displaying significant % inhibition in the screening step. IC 50 determination was done through testing at a range of concentrations with two […]
(§5) two independent experiments. […]
3.1.2 Dyrk1A kinase assay specific conditions:
The 2x Dyrk1A / Ser/Thr 18 mixture is prepared in 50 mM HEPES pH 7.5, 0.01% BRIJ-35, 10 […]
2 µM Ser/Thr 18 in 50 mM HEPES pH 7.5, 0.01% BRIJ-35, 10 mM MgCl 2, 1 mM EGTA. […]
(§6) Development Reagent A is added. […]
(§7) MgCl2, 1 mM EGTA, 0.02% NaN3. […]

Dyrk1B = Dyrk1B (Homo sapiens, UniProt Q9Y463); experiment: Z'-LYTE kinase inhibition assay, Dyrk1B; type: biochemical; conditions: for IC50: ATP conc. equivalent to Km; for inhibition at 1 µM: read-out: Dyrk1B % Inh. At 1 µM
Description: as §1, §2, §3, §4, §5
3.1.3 Dyrk1B kinase assay specific conditions:
The 2X Dyrk1B / Ser/Thr 18 mixture is prepared in 50 mM HEPES pH 6.5, 0.01% BRIJ-35, 10 […]
mM MgCl2, 1 mM EGTA, 0.02% NaN3.
as §6, §7

GSG2 (Haspin) = target: T1, GSG2 (Haspin) (Homo sapiens, UniProt Q8TF76); experiment: Adapta universal kinase assay, Haspin; type: biochemical; conditions: for inhibition at 1 µM: 1 µM compound, screening by Thermo Fisher Scientific; for IC50: ATP concentration equivalent to Km (25 μM ATP)
T1 construct: purchased Thermo Fisher Scientific, Madison, WI, USA (assay run there)
T1 sequence (Q8TF76 1-798): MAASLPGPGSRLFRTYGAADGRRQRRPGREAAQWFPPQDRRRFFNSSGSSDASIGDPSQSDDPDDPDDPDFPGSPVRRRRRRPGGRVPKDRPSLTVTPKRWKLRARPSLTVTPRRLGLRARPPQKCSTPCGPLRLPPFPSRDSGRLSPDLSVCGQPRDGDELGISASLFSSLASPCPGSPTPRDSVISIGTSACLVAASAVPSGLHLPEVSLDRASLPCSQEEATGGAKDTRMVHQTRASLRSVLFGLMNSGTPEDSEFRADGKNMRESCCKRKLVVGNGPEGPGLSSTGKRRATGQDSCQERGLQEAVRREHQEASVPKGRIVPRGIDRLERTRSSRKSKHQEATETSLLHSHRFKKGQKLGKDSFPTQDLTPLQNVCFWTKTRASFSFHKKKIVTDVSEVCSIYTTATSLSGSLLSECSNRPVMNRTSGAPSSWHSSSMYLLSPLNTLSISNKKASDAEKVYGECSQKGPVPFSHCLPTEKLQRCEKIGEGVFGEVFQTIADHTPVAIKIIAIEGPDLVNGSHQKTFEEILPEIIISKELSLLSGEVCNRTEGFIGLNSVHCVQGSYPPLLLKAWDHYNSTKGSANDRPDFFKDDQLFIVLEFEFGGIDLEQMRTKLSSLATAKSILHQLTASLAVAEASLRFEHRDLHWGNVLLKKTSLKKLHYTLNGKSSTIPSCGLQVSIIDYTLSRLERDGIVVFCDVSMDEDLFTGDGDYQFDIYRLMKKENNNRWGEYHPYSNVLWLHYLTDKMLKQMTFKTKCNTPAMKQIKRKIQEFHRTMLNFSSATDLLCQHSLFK
Description: 3.2 The Adapta universal kinase assay for screening and IC 50 determination against haspin.
The haspin kinase assay was done at Thermo Fisher Scientific, Madison, WI, USA using a fluorescence-based immunoassay known as ‘The Adapta Universal Kinase Assay’, which detects the ADP produced by kinases utilizing the TR-FRET technology. The final 10 μL kinase reaction consists of 0.25 - 1 ng GSG2 (Haspin) and 100 μM of the substrate (Histone H3 (1-20) peptide) in […]
μM ATP. After an incubation time of 1 h at RT, 5 μL of a detection mix was added.
To determine the half maximal inhibitory concentration (IC 50), the assays were performed in duplicate in the absence or presence of increasing doses of the tested compounds.

cleaved caspase-3 = experiment: Western blot, cleaved caspase-3 in T24 cells; type: cell-based, human; conditions: 10–50 μM, 24 h
Description: Cell lysates were sequentially suspended in commercial RIPA Buffer (pH 7.4; Cat# RB4475, Bio Basic, Markham, Ontario, Canada) containing Protease Inhibitor Cocktail and PhosSTOP (Merck, Darmstadt, Germany), boiled in sodium dodecyl sulphate (SDS) sample buffer, separated by SDS-polyacrylamide gel electrophoresis (PAGE), and electrophoresed onto a PVDF membrane. Antibodies used in this study were Bcl-2 (Cat#A19693, RRID: AB_2862738) and Bax (Cat# A0207, RRID: AB_2757021) from ABclonal (Boston, MA, USA); cleaved caspase-3 (Cat# 9662, RRID: AB_331439) and GAPDH (Cat# 8884, RRID:AB_11129865) from Cell Signaling Technology (Beverly, MA, USA). The labeled signals were determined using HRP-conjugated secondary antibodies and the Bio-rad ChemiDoc™ MP Imaging System (Berkeley, CA, USA).
Figure 4 Examining the effect of 12 and 17 on proapoptotic and antiapoptotic pathways. T24 cells were treated with DMSO (0.1%), 12 (30–50 µM), or 17 (30–50 µM) for 24 h. Expression levels of cleaved caspase-3, Bax, Bcl-2, and GAPDH were analyzed by Western blot by corresponding antibodies. The quantitation of the cleaved caspase-3/GAPDH, Bax/GAPDH, and Bcl-2/GAPDH ratio are shown. All data are expressed as the mean ± S.E.M. (n = 3). * p < 0.05, ** p < 0.01, *** p < 0.001 compared with the DMSO group.

Dyrk1B, sequence (Q9Y463 whole entry): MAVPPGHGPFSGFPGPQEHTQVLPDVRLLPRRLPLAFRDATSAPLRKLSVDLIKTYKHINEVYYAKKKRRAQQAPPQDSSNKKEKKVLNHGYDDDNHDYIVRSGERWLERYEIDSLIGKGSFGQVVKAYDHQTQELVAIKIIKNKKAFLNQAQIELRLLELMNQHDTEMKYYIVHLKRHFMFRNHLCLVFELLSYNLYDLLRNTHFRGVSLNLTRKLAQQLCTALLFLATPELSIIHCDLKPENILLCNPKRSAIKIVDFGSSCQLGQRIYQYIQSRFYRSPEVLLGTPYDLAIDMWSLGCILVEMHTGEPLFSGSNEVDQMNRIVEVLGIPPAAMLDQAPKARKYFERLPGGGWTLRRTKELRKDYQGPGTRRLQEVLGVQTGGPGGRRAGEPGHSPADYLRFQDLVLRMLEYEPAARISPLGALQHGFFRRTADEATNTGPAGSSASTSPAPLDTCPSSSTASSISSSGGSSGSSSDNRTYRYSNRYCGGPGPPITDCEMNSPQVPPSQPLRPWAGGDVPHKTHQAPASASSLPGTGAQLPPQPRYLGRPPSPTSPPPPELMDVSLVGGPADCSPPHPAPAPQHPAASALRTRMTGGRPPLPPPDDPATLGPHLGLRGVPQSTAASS

SMILES | IC50 (Dyrk1A) [nM] | inhibition at 1 µM (Dyrk1A) [%] | IC50 (Dyrk1B) [nM] | inhibition at 1 µM (Dyrk1B) [%] | inhibition at 1 µM (GSG2 (Haspin)) [%] | Level of cleaved caspase-3 (cleaved caspase-3) | IC50 (GSG2 (Haspin)) [nM] | Improvement in inhibitory activity against Dyrk1B compared to compound 1 (Dyrk1B; ratio of IC50 vs compound 1) [fold]
COc1ccccc1CNC(=O)c1cc2cc(O)ccc2s1 [Compound 11, 5-Hydroxy-N-(2-methoxybenzyl)benzo[b]thiophene-2-carboxamide] | 565 | 64 | 578 | 64 | 46 | – | – | –
COc1cccc(CNC(=O)c2cc3cc(O)ccc3s2)c1 [Compound 12, 5-Hydroxy-N-(3-methoxybenzyl)benzo[b]thiophene-2-carboxamide] | 536 | 65 | 238 | 81 | 85 | increased the proapoptotic levels of cleaved caspase-3 and Bax | 167 | –
O=C(NCc1cc(F)cc(F)c1)c1cc2cc(O)ccc2s1 [Compound 17, N-(3,5-Difluorobenzyl)-5-hydroxybenzo[b]thiophene-2-carboxamide] | 495 | 67 | 242 | 81 | 80 | increased the proapoptotic levels of cleaved caspase-3 and Bax | 256 | 4
O=C(NCc1cccc(F)c1)c1cc2cc(O)ccc2s1 [Compound 6, N-(3-Fluorobenzyl)-5-hydroxybenzo[b]thiophene-2-carboxamide] | 666 | 60 | 406 | 71 | 83 | – | 207 | –
O=C(NCc1cccc(Cl)c1)c1cc2cc(O)ccc2s1 [Compound 3, N-(3-Chlorobenzyl)-5-hydroxybenzo[b]thiophene-2-carboxamide] | 751 | 60 | 530 | 66 | 54 | – | – | –
